Test results as given in article PMC7170716 (Nature, 2020).
pKd: −log10 of the molar value.

Key:
[1] = target: T1, M. thermoresistibile IrtAB (full-length) (Mycolicibacterium thermoresistibile, UniProt G7CBF5+G7CBF6); experiment: ATPase stimulation in nanodiscs, malachite green; assay type: biochemical; conditions: 2.5 mM ATP, 10 mM MgSO4, 37 °C, acyl chain length not defined
T1 sequence (G7CBF5 1-908): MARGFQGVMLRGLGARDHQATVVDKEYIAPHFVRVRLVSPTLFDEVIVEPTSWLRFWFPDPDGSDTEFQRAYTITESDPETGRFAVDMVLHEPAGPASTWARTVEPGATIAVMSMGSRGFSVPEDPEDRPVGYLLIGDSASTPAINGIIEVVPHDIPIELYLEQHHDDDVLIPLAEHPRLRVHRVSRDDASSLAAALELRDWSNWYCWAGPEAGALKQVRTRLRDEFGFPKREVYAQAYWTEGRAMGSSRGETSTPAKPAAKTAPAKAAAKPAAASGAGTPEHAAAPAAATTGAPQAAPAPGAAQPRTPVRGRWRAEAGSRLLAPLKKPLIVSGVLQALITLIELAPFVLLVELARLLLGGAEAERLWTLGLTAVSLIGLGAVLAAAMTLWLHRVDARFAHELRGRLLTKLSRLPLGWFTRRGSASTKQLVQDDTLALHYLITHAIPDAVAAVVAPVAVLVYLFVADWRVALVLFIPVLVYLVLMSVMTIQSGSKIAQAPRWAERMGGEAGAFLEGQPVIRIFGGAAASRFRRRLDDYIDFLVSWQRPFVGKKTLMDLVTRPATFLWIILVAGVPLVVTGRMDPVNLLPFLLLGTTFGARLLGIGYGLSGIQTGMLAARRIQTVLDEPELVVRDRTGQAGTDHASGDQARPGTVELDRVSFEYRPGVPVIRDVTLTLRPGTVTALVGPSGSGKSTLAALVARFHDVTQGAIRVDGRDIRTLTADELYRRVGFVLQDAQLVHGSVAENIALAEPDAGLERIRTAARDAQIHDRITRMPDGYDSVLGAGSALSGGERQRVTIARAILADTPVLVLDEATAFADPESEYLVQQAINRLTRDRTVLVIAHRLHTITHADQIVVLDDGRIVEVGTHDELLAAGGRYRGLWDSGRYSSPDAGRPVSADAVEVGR
T1 sequence (G7CBF6 1-579): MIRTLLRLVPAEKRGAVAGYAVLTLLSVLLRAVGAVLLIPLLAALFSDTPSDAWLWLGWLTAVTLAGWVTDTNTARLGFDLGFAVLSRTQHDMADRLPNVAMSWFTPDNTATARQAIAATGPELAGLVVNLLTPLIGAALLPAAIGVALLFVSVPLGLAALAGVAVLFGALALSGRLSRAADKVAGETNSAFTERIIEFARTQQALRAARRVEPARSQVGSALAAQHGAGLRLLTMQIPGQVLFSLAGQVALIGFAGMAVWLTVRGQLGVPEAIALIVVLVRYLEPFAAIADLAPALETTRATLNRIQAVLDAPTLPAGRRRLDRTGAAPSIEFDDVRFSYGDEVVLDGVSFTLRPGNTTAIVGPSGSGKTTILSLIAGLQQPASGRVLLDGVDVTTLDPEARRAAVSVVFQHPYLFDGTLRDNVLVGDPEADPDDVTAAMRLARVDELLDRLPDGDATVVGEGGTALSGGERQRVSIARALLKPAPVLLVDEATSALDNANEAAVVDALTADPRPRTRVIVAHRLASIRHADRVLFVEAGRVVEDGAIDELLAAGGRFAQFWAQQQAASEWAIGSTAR

M. smegmatis SID = target: T2, M. smegmatis SID (Mycolicibacterium smegmatis, UniProt A0R6H8); experiment: SPR, biotinylated SID on chip, equilibrium fit; assay type: binding; conditions: HPLC-purified Fe-cMBT (MW 799 Da), 0-100 μM; single experiment
T2 sequence (A0R6H8 1-250 limits assumed): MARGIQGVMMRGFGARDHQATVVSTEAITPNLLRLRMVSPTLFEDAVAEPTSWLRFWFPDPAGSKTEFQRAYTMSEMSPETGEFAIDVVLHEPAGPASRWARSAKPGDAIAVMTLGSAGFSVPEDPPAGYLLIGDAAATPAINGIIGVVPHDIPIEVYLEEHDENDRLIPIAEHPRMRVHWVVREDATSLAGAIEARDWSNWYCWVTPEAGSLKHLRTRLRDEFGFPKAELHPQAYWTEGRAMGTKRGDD

| fold ATPase stimulation ([1]; Fe-MBT 0.5-40 μM) | pKd (M. smegmatis SID) | fold ATPase stimulation ([1]; Fe-cMBT 0.5-40 μM) | Substance |
| --- | --- | --- | --- |
| > 38 fold |  |  | Fe-MBT |
|  | < 3.70 | > 10 fold | Fe-cMBT |
